# Laboratory results taken from patent US7628979B1, “Use of calco oil blue V in bait formulations for marking and controlling subterranean termites” (The United States of America as represented by the …, priority 2005, dated 2009).
# How the values were obtained:
# C. formosanus = test: Preliminary laboratory dose-range test of colored bait matrix; assay type: in vivo, Coptotermes formosanus
# Method: (3) Incorporation of Nutrients. The dry colored alpha cellulose was then mixed with the nutritive liquid (described in U.S. Pat. No. 6,585,991 which is incorporated by reference in its entirety). The nutritive liquid was prepared by weighing 1.25 g lecithin (USB #18240), 0.450 g ergosterol (Sigma #E-6510), 3.75 g ethyl alcohol (Quantum MT #194A31), and 650 g drinking water (Barbe's dairy, West Wego, La.) into a 1 L glass bottle and mixing well using a glass bar. The opening of the bottle was covered with a foam stopper, the bottle cap was loosely placed on top of the stopper, and the stopper covered with foil. After autoclaving for 20 min at 120° C., the bottle was closed tightly and allowed to cool down. Under a laminar flow hood, yeast hydrolysate (ICN Biomed. #103304) was added to the lecithin-containing mixture using a sterile spatula and the mixture was shaken until the yeast hydrolysate was incorporated. The bottle was tightly closed. Using a sterile spatula, 667 ml lecithin-yeast hydrolysate-containing mixture was added to 333 g colored cellulose (at each of the calco oil blue V concentrations) and mixed well. The beaker was covered with foil and plastic to avoid contamination and loss of water. This mixture was stored at 5° C. up to 8 months or at room temperature for at least a month. The mixture was compacted and divided into pieces of about 25-50 g each at colorant concentrations of 50, 100, 225, 250, 500, and 750 ppm respectively. Chitin synthesis inhibitors such as Diflubenzuron (Ensystex) at a given concentration of 50, 100, 175, 200, and 250 ppm were individually weighed, dissolved in minimal amount of acetone (J. T. Baker #9010-03) in a 50 ml plastic tube, and added to the sterile liquid solution.
# A concentration of 225 ppm Calco oil blue was effective as bait active ingredient taking a mean time to kill C. formosanus of 2.0 months under laboratory conditions.
# [1] = tested on: Formosan subterranean termites; test: In-field marking and control, bait at infested trees, sites 1 and 2; assay type: in vivo; conditions: for Bait consumption: 250 ppm bait
# From the text: (§1) Formosan subterranean termite and native subterranean termite infested trees (Water Oaks and Legastrums) in New Orleans, La. were chosen for this study. Three sites were selected located at the Southern Regional Research Center campus. Site 1 was located near the service building next to an old water oak tree, site 2 was located in the compound area near ligastrum trees, and site 3 near ligastrum trees outside the compound area. Sites 1 and 2 were active with Formosan subterranean termites and site 3 with Eastern subterranean termites.
# (§2) The colored bait matrix at 250 ppm was encapsulated as described above and placed directly in the base of the trees where termites were foraging, making sure that the encapsulated colored bait matrix was covered with soil or with a piece of wood or brick on top of it to prevent desiccation. The bait was periodically inspected for consumption and termite activity. The field study started in early August and was completed by the end of the following June. During winter (December-February) termite activity decreased considerably, but by April termite activity and foraging resumed and the blue colored matrix was replaced by bait formulation containing 250 ppm of chitin synthesis inhibitors to kill the colonies. Diflubenzuron was used in 2 of the sites and chlorfluazuron was used in the remaining site.
# [2] = tested on: Eastern subterranean termites; test: In-field marking and control, bait at infested trees, site 3; assay type: in vivo; conditions: Site 3 (Ligastrum), 250 ppm bait
# From the text: as §1, §2
compound,measurement,setting,value
"CCCCC(CC)CNc1ccc(NCC(CC)CCCC)c2c1C(=O)c1ccccc1C2=O (stereo not shown) [Calco oil blue V, 9,10-anthracenedione, 1,4-bis[(2-ethylhexyl)amino]]",mean time to kill C. formosanus,"C. formosanus; 225 ppm Calco oil blue, laboratory conditions",2.0 months
same,repellence to the termites,C. formosanus; 225 ppm blue colorant in combination with a chitin synthesis inhibitor (50-175 ppm),without any signs of repellence
same,time to induce FS termite mortality,"C. formosanus; 225 ppm blue colorant in combination with a chitin synthesis inhibitor (50-175 ppm), preliminary results",≤ 2 months
same,repellence to the termites,C. formosanus; colorant doses higher than 500 ppm,Some repellence was observed
same,Bait consumption,C. formosanus; concentrations greater than 500 and up to 1000 ppm,bait consumption was reduced
same,mean killing times,"C. formosanus; concentrations greater than 500 and up to 1000 ppm, compared with 225 ppm",not significantly different
same,Bait consumption,"[1]; Site 1 (Water Oak), day 7",0 g
same,Bait consumption,"[1]; Site 1 (Water Oak), day 14",150 g
same,Bait consumption,"[1]; Site 1 (Water Oak), day 21",350 g
same,Bait consumption,"[1]; Site 1 (Water Oak), day 27",400 g
same,Bait consumption,"[1]; Site 1 (Water Oak), day 46",400 g
same,Bait consumption,"[1]; Site 1 (Water Oak), day 56",100 g
same,Bait consumption,"[1]; Site 1 (Water Oak), day 73",0 g
same,Bait consumption,"[1]; Site 1 (Water Oak), day 83",0 g
same,Bait consumption,"[1]; Site 1 (Water Oak), day 102",0 g
same,Bait consumption,"[1]; Site 1 (Water Oak), day 159",0 g
same,Bait consumption,"[1]; Site 1 (Water Oak), day 221",0 g
same,Bait consumption,"[1]; Site 1 (Water Oak), day 251",0 g
same,Bait consumption,"[1]; Site 1 (Water Oak), day 281",0 g
same,Bait consumption,"[1]; Site 2 (Ligastrum), day 7",0 g
same,Bait consumption,"[1]; Site 2 (Ligastrum), day 14",200 g
same,Bait consumption,"[1]; Site 2 (Ligastrum), day 21",450 g
same,Bait consumption,"[1]; Site 2 (Ligastrum), day 27",300 g
same,Bait consumption,"[1]; Site 2 (Ligastrum), day 46",250 g
same,Bait consumption,"[1]; Site 2 (Ligastrum), day 56",350 g
same,Bait consumption,"[1]; Site 2 (Ligastrum), day 73",250 g
same,Bait consumption,"[1]; Site 2 (Ligastrum), day 83",300 g
same,Bait consumption,"[1]; Site 2 (Ligastrum), day 102",400 g
same,Bait consumption,"[1]; Site 2 (Ligastrum), day 159",200 g
same,Bait consumption,"[1]; Site 2 (Ligastrum), day 221",0 g
same,Bait consumption,"[1]; Site 2 (Ligastrum), day 251",0 g
same,Bait consumption,"[1]; Site 2 (Ligastrum), day 281",0 g
same,time termite workers remained visibly colored after removing the blue colored bait formulation,"[1]; field, 250 ppm",1 week
same,marking of termites after feeding on colored bait matrix,"[1]; field, 250 ppm colored bait matrix without diflubenzuron",visibly colored blue
same,period to eliminate the colonies,"[1]; field, calco oil blue bait followed by bait with 250 ppm chitin synthesis inhibitors",2 months
same,effect on termite colonies and termite activity,"[1]; field, matrix with calco oil blue V alone, 250 ppm",did not kill the termite colonies nor reduce termite activity
same,Bait consumption,[2]; day 7,0 g
same,Bait consumption,[2]; day 14,200 g
same,Bait consumption,[2]; day 21,150 g
same,Bait consumption,[2]; day 27,150 g
same,Bait consumption,[2]; day 46,100 g
same,Bait consumption,[2]; day 56,0 g
same,Bait consumption,[2]; day 73,0 g
same,Bait consumption,[2]; day 83,0 g
same,Bait consumption,[2]; day 102,0 g
same,Bait consumption,[2]; day 159,0 g
same,Bait consumption,[2]; day 221,0 g
same,Bait consumption,[2]; day 251,0 g
same,Bait consumption,[2]; day 281,0 g
